Reference: ChEMBL document CHEMBL1201862, “PubChem BioAssay data set” (2004)
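Tested at 5 concentrations; 48 h exposure; 96-well plates; endpoints linearly interpolated, else capped at highest concentration. GI50 = concentration required for 50% inhibition of growth.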 Calls of active or inactive are those of the source. Cut-off read from the data, not from the text of the source: active = GI50 up to about 1.1 µM and inactive = higher.

How the values were obtained:
Assay in all cases: NCI anticancer screen, dose series, 48 h
NCI-H23 = tested on: NCI-H23
SF-268 = tested on: SF-268
RXF 393 = tested on: RXF 393
UACC-257 = tested on: UACC-257
NCI-H460 = tested on: NCI-H460
UACC-62 = tested on: UACC-62
COLO 205 = tested on: COLO 205
OVCAR-4 = tested on: OVCAR-4
NCI-H522 = tested on: NCI-H522
M14 = tested on: M14
UO-31 = tested on: UO-31
A549 = tested on: A549
SR = tested on: SR
NCI-H226 = tested on: NCI-H226
HCT-116 = tested on: HCT-116
CCRF-CEM = tested on: CCRF-CEM
OVCAR-8 = tested on: OVCAR-8
SK-MEL-28 = tested on: SK-MEL-28

Structure (SMILES)	GI50 (NCI-H23)	GI50 (SF-268)	GI50 (RXF 393)	GI50 (UACC-257)	GI50 (NCI-H460)	GI50 (UACC-62)	GI50 (COLO 205)	GI50 (OVCAR-4)	GI50 (NCI-H522)	GI50 (M14)	GI50 (UO-31)	GI50 (A549)	GI50 (SR)	GI50 (NCI-H226)	GI50 (HCT-116)	GI50 (CCRF-CEM)	GI50 (OVCAR-8)	GI50 (SK-MEL-28)
COC(=O)c1cc2c3c(ccc2[nH]1)N(C(=O)c1cc2c4c(ccc2[nH]1)N(C(=O)c1cc2c5c(ccc2[nH]1)N(C(N)=O)CC5)CC4)CC3	2.94 µM (inactive)	2.17 µM (inactive)	2.17 µM (inactive)	> 22.6 µM (inactive)	3.24 µM (inactive)	0.845 µM (active)	2.72 µM (inactive)	3.55 µM (inactive)	1.61 µM (inactive)	1.87 µM (inactive)	3.94 µM (inactive)	3 µM (inactive)	5.58 µM (inactive)	1.71 µM (inactive)	2.24 µM (inactive)	4.58 µM (inactive)		
CC1(C)O/C(=C\c2ccccc2)C(=O)/C(=C/c2ccccc2)O1	20 µM (inactive)	57.4 µM (inactive)	13.9 µM (inactive)	22.5 µM (inactive)	59.6 µM (inactive)	25.8 µM (inactive)	43.3 µM (inactive)	56.6 µM (inactive)	3.4 µM (inactive)	34.4 µM (inactive)	19.1 µM (inactive)	23.3 µM (inactive)	20.5 µM (inactive)	17.7 µM (inactive)	26.4 µM (inactive)	15.8 µM (inactive)	45.2 µM (inactive)	50.4 µM (inactive)
CN(C)NC(=O)/C(=C/c1ccc(Cl)cc1)NC(=O)c1ccccc1	> 100 µM (inactive)	> 100 µM (inactive)	> 100 µM (inactive)	> 100 µM (inactive)	69.3 µM (inactive)	> 100 µM (inactive)	45.2 µM (inactive)	> 100 µM (inactive)	40.7 µM (inactive)	> 100 µM (inactive)	57.1 µM (inactive)	> 100 µM (inactive)	39.9 µM (inactive)	> 100 µM (inactive)	> 100 µM (inactive)	> 100 µM (inactive)	> 100 µM (inactive)	> 100 µM (inactive)
COc1cc2ccnc3c2c(c1OC)CC1CC(O)C(OC)CC31 (centres undefined)	47.5 µM (inactive)			37.1 µM (inactive)	35.6 µM (inactive)	38.5 µM (inactive)	43.2 µM (inactive)	> 100 µM (inactive)	60.1 µM (inactive)	51.8 µM (inactive)	20.9 µM (inactive)	61.8 µM (inactive)	32 µM (inactive)	96.4 µM (inactive)	38.7 µM (inactive)	78.3 µM (inactive)	53.8 µM (inactive)	22.7 µM (inactive)
CNC(C)Cc1ccccc1O (centres undefined)	> 100 µM (inactive)	> 100 µM (inactive)	> 100 µM (inactive)	> 100 µM (inactive)	> 100 µM (inactive)	> 100 µM (inactive)	> 100 µM (inactive)	> 100 µM (inactive)	> 100 µM (inactive)	> 100 µM (inactive)	> 100 µM (inactive)	> 100 µM (inactive)	> 100 µM (inactive)	> 100 µM (inactive)	> 100 µM (inactive)	> 100 µM (inactive)	> 100 µM (inactive)	> 100 µM (inactive)
CN1CC[C@]2(C)c3cc(O)ccc3CC3CCCC1C32C (some centres undefined)	> 100 µM (inactive)	> 100 µM (inactive)	> 100 µM (inactive)	> 100 µM (inactive)	> 100 µM (inactive)	> 100 µM (inactive)	> 100 µM (inactive)		> 100 µM (inactive)	> 100 µM (inactive)	89.7 µM (inactive)	> 100 µM (inactive)	> 100 µM (inactive)	> 100 µM (inactive)	> 100 µM (inactive)	> 100 µM (inactive)	> 100 µM (inactive)	> 100 µM (inactive)
Oc1ccc(-c2n[nH]c(S)n2)cc1	> 100 µM (inactive)	> 100 µM (inactive)		> 100 µM (inactive)	> 100 µM (inactive)	> 100 µM (inactive)	> 100 µM (inactive)	> 100 µM (inactive)	> 100 µM (inactive)	> 100 µM (inactive)	> 100 µM (inactive)	> 100 µM (inactive)	> 100 µM (inactive)	> 100 µM (inactive)	> 100 µM (inactive)	> 100 µM (inactive)	> 100 µM (inactive)	> 100 µM (inactive)
CCO[C@]12C[C@H](OC)[C@@]3(O)CC(C1[C@H]3OCc1ccccc1)C13C4C2[C@H](OC)C1[C@](COC)(CN4CC)[C@H](O)C[C@@H]3OC (some centres undefined)	> 100 µM (inactive)	> 100 µM (inactive)	> 100 µM (inactive)	> 100 µM (inactive)	> 100 µM (inactive)	> 100 µM (inactive)	> 100 µM (inactive)	> 100 µM (inactive)		> 100 µM (inactive)	> 100 µM (inactive)	> 100 µM (inactive)	78.5 µM (inactive)	> 100 µM (inactive)	> 100 µM (inactive)	> 100 µM (inactive)	> 100 µM (inactive)	> 100 µM (inactive)
Cc1ccc2[nH]c3c4c5ccccc5nc-4c[nH]c3c2c1	10 µM (inactive)	17 µM (inactive)	13.8 µM (inactive)	18.1 µM (inactive)	15.3 µM (inactive)	16.4 µM (inactive)	17.5 µM (inactive)	22.1 µM (inactive)	21.5 µM (inactive)	18.2 µM (inactive)	16.7 µM (inactive)	17.2 µM (inactive)		16.1 µM (inactive)	17.1 µM (inactive)	15.3 µM (inactive)	18.6 µM (inactive)	17.7 µM (inactive)
CCOC(=O)C(=O)Nc1ccc([N+](=O)[O-])cc1C#N	> 100 µM (inactive)	> 100 µM (inactive)	> 100 µM (inactive)	> 100 µM (inactive)	> 100 µM (inactive)	> 100 µM (inactive)		> 100 µM (inactive)	> 100 µM (inactive)	> 100 µM (inactive)	> 100 µM (inactive)	> 100 µM (inactive)	> 100 µM (inactive)	> 100 µM (inactive)	> 100 µM (inactive)	> 100 µM (inactive)	> 100 µM (inactive)	> 100 µM (inactive)
Cc1nc(N)nc(N)c1CCCCc1ccc(N)cc1	4.37 µM (inactive)	0.995 µM (active)		5.07 µM (inactive)	0.959 µM (active)	1.86 µM (inactive)	10.4 µM (inactive)	10.6 µM (inactive)	4.26 µM (inactive)	2.58 µM (inactive)	13.2 µM (inactive)	0.668 µM (active)	1.28 µM (inactive)	25.8 µM (inactive)	0.569 µM (active)	3.01 µM (inactive)	3.18 µM (inactive)	10.1 µM (inactive)
O=C1C2c3[nH]c4ccccc4c3[C@@H]3CCCCC3C2C(=O)N1c1ccccc1 (some centres undefined)	19.5 µM (inactive)	18.7 µM (inactive)	16.7 µM (inactive)		17.8 µM (inactive)	16.6 µM (inactive)	19.1 µM (inactive)	20.5 µM (inactive)		15 µM (inactive)	17.3 µM (inactive)	28.8 µM (inactive)	19.8 µM (inactive)	21 µM (inactive)		26.5 µM (inactive)	26.4 µM (inactive)	18.2 µM (inactive)
Cc1cc(N(CCC#N)CCC#N)ccc1/C=C1\N=C(c2cc([N+](=O)[O-])ccc2Cl)N(NC(=O)c2ccc(/N=C\c3ccc(N(CCC#N)S(C)(=O)=O)cc3C)cc2)C1=O	> 100 µM (inactive)	> 100 µM (inactive)	> 100 µM (inactive)	63.4 µM (inactive)	> 100 µM (inactive)	24.2 µM (inactive)	> 100 µM (inactive)	> 100 µM (inactive)	> 100 µM (inactive)	37.9 µM (inactive)	> 100 µM (inactive)	> 100 µM (inactive)		> 100 µM (inactive)	> 100 µM (inactive)	76.4 µM (inactive)	> 100 µM (inactive)	> 100 µM (inactive)
COC(=O)C1CC(C(=O)OC)c2nc3cc(C)ccc3nc21 (centres undefined)	> 100 µM (inactive)	> 100 µM (inactive)		58.3 µM (inactive)	> 100 µM (inactive)	> 100 µM (inactive)	> 100 µM (inactive)	> 100 µM (inactive)	> 100 µM (inactive)	> 100 µM (inactive)	> 100 µM (inactive)	> 100 µM (inactive)		> 100 µM (inactive)		> 100 µM (inactive)	> 100 µM (inactive)	> 100 µM (inactive)
Cc1cccc(N2C(=O)/C(=C/c3ccc(N(CCC#N)CCC#N)cc3C)N=C2c2cc([N+](=O)[O-])ccc2Cl)c1	> 100 µM (inactive)	> 100 µM (inactive)		> 100 µM (inactive)	> 100 µM (inactive)	> 100 µM (inactive)	47.3 µM (inactive)	> 100 µM (inactive)	> 100 µM (inactive)	> 100 µM (inactive)	> 100 µM (inactive)	> 100 µM (inactive)	> 100 µM (inactive)	> 100 µM (inactive)	85.7 µM (inactive)	41.9 µM (inactive)	> 100 µM (inactive)	> 100 µM (inactive)
COc1cc(C2(C)SCCCS2)cc(OC)c1OC	> 100 µM (inactive)	> 100 µM (inactive)		> 100 µM (inactive)	> 100 µM (inactive)	> 100 µM (inactive)	> 100 µM (inactive)	> 100 µM (inactive)	> 100 µM (inactive)	> 100 µM (inactive)	> 100 µM (inactive)	> 100 µM (inactive)	> 100 µM (inactive)	> 100 µM (inactive)	> 100 µM (inactive)	> 100 µM (inactive)	> 100 µM (inactive)	> 100 µM (inactive)
